From paper PMC10174618, “Monoterpenoid aryl hydrocarbon receptor allosteric antagonists protect against ultraviolet skin damage in female mice” (Nature Communications, 2023)

Key:
Assay in all cases: biochemical
Set-up in all cases: KINOMEscan scanMAX active site-directed competition binding assay, percent of control, 468 kinases
Conditions in all cases: competition binding, percent of control
CHEK2 = CHEK2 (Homo sapiens, UniProt O96017)
Method in brief: (§1)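 KINOMEscan active site-directed competition binding assay against 468 human kinases with 100 μM S-carvone. Binding expressed as % of control, with 35% of control as the inhibition threshold.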

CDK7 = CDK7 (Homo sapiens, UniProt P50613)
Method in brief: as §1

PLK2 = PLK2 (Homo sapiens, UniProt Q9NYY3)
Method in brief: as §1

ADCK3 = target: T1, ADCK3 (Homo sapiens, UniProt Q8NI60)
T1 construct: gene COQ8A
Method in brief: as §1

MUSK = MUSK (Homo sapiens, UniProt O15146)
Method in brief: as §1

PKAC-alpha = target: T2, PKAC-alpha (Homo sapiens, UniProt P17612)
T2 construct: gene PRKACA
Method in brief: as §1

SGK = target: T3, SGK (Homo sapiens, UniProt O00141)
T3 construct: gene SGK1
Method in brief: as §1

NEK6 = NEK6 (Homo sapiens, UniProt Q9HC98)
Method in brief: as §1

PIKFYVE = PIKFYVE (Homo sapiens, UniProt Q9Y2I7)
Method in brief: as §1

MRCKA = target: T4, MRCKA (Homo sapiens, UniProt Q5VT25)
T4 construct: gene CDC42BPA
Method in brief: as §1

PRKCI = PRKCI (Homo sapiens, UniProt P41743)
Method in brief: as §1

CSK = CSK (Homo sapiens, UniProt P41240)
Method in brief: as §1

MET(M1250T) = MET(M1250T) (Homo sapiens, UniProt P08581, M1250T)
Method in brief: as §1

CTK = target: T5, CTK (Homo sapiens, UniProt P42679)
T5 construct: gene MATK
Method in brief: as §1

SRPK1 = SRPK1 (Homo sapiens, UniProt Q96SB4)
Method in brief: as §1

PCTK1 = target: T6, PCTK1 (Homo sapiens, UniProt Q00536)
T6 construct: gene CDK16
Method in brief: as §1

ACVR1B = ACVR1B (Homo sapiens, UniProt P36896)
Method in brief: as §1

MKNK2 = MKNK2 (Homo sapiens, UniProt Q9HBH9)
Method in brief: as §1

FLT3(ITD) = FLT3(ITD) (Homo sapiens, UniProt P36888, ITD)
Method in brief: as §1

MAP4K5 = MAP4K5 (Homo sapiens, UniProt Q9Y4K4)
Method in brief: as §1

FES = FES (Homo sapiens, UniProt P07332)
Method in brief: as §1

LRRK2(G2019S) = LRRK2(G2019S) (Homo sapiens, UniProt Q5S007, G2019S)
Method in brief: as §1

Chain of FES (P07332 whole entry): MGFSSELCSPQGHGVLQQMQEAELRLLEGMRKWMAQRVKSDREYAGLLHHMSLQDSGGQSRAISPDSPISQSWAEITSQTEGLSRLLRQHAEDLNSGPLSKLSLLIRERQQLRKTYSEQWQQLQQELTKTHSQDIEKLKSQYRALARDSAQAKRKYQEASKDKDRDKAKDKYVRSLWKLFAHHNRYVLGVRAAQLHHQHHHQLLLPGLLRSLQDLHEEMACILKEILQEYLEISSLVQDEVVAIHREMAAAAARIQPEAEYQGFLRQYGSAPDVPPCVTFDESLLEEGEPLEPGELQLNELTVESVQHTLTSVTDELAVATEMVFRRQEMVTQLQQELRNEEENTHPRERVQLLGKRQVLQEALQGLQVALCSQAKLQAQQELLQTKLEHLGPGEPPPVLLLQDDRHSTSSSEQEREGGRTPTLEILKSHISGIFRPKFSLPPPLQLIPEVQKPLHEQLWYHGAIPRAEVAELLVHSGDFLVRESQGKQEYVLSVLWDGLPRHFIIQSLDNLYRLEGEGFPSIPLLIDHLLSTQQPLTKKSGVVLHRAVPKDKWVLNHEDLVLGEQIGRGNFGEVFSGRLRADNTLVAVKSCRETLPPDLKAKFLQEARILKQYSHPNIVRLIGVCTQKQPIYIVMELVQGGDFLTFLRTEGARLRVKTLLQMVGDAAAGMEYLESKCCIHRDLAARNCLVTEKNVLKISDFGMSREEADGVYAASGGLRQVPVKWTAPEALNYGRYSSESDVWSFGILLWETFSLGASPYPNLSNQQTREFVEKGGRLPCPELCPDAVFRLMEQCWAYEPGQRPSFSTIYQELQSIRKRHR
Chain of MUSK (O15146 whole entry): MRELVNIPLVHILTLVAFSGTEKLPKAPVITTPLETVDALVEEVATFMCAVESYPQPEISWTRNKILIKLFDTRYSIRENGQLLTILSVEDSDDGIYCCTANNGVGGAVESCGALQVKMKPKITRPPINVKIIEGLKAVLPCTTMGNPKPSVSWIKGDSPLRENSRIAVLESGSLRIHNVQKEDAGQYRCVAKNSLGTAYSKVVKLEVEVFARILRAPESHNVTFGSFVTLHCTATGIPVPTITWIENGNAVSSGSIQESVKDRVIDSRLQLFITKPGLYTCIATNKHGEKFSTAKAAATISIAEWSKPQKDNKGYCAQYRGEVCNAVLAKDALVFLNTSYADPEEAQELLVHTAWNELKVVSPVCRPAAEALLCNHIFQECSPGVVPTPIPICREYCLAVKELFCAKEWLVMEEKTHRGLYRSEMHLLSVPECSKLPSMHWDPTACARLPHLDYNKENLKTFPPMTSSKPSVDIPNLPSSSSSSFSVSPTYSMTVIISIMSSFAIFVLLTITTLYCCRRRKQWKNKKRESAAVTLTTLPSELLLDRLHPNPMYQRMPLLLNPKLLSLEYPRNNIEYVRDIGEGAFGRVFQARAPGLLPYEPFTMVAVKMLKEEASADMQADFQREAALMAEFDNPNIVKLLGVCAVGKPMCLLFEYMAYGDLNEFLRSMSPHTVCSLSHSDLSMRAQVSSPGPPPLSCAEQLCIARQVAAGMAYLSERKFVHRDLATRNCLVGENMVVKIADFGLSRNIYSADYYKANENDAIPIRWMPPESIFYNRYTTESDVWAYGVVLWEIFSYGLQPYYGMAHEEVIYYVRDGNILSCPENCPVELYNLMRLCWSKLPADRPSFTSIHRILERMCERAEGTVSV
T3 sequence (O00141 whole entry): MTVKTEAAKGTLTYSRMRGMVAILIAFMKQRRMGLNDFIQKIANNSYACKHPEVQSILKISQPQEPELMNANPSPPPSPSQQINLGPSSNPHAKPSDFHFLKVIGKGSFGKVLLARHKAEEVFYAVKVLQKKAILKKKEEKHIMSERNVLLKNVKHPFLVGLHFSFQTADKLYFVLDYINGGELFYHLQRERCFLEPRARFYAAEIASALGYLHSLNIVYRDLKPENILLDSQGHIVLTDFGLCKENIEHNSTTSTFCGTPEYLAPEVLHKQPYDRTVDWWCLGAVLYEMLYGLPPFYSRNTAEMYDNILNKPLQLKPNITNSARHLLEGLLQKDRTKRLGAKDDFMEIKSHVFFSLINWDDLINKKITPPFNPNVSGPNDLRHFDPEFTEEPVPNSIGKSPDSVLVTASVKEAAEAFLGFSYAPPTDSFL
Chain of ACVR1B (P36896 whole entry): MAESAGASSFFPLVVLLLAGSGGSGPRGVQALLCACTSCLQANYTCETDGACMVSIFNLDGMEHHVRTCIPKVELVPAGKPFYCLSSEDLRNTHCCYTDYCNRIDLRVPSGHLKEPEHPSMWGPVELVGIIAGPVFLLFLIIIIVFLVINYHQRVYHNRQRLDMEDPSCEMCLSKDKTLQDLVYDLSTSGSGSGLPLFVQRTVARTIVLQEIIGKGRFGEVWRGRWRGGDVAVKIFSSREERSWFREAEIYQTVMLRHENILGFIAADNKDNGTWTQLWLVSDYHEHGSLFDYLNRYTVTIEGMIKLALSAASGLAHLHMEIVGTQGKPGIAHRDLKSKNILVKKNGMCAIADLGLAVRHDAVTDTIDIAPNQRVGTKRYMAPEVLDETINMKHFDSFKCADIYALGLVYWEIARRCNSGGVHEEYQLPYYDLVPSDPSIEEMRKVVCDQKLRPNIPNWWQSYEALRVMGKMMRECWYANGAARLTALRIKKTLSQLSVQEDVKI
Chain of MKNK2 (Q9HBH9 whole entry): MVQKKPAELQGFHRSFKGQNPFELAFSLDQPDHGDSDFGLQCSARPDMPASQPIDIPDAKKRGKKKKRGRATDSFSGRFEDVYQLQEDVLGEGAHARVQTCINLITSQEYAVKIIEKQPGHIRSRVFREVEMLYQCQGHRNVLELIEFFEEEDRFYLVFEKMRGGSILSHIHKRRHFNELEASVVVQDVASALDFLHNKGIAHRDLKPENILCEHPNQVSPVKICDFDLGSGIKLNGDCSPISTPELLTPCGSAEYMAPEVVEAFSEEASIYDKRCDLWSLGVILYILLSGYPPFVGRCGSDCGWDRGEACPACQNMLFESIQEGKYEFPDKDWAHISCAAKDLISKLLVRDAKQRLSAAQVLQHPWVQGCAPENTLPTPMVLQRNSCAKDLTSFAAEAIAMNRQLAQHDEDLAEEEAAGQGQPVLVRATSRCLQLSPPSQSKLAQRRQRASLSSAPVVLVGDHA
Chain of MET(M1250T) (P08581 whole entry M1250T): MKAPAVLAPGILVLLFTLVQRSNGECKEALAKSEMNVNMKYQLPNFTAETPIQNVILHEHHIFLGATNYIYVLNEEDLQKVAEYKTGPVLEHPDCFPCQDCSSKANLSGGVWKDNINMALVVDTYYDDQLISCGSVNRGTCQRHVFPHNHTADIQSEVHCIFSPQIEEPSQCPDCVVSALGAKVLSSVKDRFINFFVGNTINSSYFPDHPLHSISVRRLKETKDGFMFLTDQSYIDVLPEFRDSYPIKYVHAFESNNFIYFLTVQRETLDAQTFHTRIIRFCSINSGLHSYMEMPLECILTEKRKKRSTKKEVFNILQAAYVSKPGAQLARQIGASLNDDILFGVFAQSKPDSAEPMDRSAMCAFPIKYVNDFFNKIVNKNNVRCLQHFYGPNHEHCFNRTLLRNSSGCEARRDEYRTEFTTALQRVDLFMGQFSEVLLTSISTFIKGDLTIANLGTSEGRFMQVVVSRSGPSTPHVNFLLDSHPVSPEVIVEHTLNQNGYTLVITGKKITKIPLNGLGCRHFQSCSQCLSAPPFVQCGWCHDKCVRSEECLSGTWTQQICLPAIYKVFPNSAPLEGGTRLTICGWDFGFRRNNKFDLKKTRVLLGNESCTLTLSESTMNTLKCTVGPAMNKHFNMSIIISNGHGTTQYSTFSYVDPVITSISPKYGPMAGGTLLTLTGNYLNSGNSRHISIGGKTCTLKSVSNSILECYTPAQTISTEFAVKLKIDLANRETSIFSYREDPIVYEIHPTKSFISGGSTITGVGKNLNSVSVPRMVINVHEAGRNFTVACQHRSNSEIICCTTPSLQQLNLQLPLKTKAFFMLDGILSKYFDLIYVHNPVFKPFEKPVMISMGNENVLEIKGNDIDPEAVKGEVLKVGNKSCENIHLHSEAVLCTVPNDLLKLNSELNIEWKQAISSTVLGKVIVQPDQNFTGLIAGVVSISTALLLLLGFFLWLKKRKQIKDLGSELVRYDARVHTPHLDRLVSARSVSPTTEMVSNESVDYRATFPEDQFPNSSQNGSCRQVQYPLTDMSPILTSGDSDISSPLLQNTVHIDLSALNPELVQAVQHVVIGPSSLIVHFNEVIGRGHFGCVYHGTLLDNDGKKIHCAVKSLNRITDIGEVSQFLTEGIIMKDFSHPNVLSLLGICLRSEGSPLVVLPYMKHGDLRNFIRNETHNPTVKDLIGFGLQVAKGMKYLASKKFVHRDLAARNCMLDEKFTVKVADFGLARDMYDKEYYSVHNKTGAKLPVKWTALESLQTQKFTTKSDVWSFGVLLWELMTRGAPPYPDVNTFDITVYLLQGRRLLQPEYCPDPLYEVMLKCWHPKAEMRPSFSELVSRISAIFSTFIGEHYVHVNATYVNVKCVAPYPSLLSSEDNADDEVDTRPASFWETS
Chain of PRKCI (P41743 whole entry): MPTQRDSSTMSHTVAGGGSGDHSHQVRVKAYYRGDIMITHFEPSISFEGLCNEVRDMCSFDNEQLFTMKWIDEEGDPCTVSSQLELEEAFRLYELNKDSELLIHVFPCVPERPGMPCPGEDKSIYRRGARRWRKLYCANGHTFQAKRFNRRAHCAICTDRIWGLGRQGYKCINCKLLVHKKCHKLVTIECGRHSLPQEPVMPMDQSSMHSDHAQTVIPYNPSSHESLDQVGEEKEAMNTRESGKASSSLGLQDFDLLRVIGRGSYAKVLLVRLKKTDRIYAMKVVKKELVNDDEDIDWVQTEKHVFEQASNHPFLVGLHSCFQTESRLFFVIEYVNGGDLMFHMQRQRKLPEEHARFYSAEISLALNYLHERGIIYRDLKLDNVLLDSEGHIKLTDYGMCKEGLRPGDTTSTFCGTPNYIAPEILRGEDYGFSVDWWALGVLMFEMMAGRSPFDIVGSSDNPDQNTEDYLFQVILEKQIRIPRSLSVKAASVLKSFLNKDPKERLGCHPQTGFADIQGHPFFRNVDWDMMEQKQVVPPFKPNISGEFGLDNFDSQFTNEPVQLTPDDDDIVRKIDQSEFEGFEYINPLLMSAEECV

SMILES: C=C(C)[C@H]1CC=C(C)C(=O)C1 [S-carvone]
- remaining binding at 100 µM (CHEK2): 99%
- remaining binding at 100 µM (CDK7): 65%
- remaining binding at 100 µM (PLK2): 68%
- remaining binding at 100 µM (ADCK3): 66%
- remaining binding at 100 µM (MUSK): 100%
- remaining binding at 100 µM (PKAC-alpha): 85%
- remaining binding at 100 µM (SGK): 70%
- remaining binding at 100 µM (NEK6): 84%
- remaining binding at 100 µM (PIKFYVE): 100%
- remaining binding at 100 µM (MRCKA): 80%
- remaining binding at 100 µM (PRKCI): 72%
- remaining binding at 100 µM (CSK): 88%
- remaining binding at 100 µM (MET(M1250T)): 73%
- remaining binding at 100 µM (CTK): 75%
- remaining binding at 100 µM (SRPK1): 77%
- remaining binding at 100 µM (PCTK1): 100%
- remaining binding at 100 µM (ACVR1B): 98%
- remaining binding at 100 µM (MKNK2): 82%
- remaining binding at 100 µM (FLT3(ITD)): 92%
- remaining binding at 100 µM (MAP4K5): 85%
- remaining binding at 100 µM (FES): 69%
- remaining binding at 100 µM (LRRK2(G2019S)): 81%
